# Measured values reported in PubChem BioAssay (NCI).
# Where “and” joins values, the source holds several entries; their conditions need not be identical. Equal entries are not always repeated.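 Grown in 96-well plates, cells were treated for 48 hours with each compound at five concentrations. Insufficient inhibition: endpoint recorded as highest concentration tested. Abbreviation: GI50, concentration required for 50% inhibition of growth. TGI: total growth inhibition.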
# Assays:
# [1] = test system: P388 leukemia; test: NCI tumour cell line growth inhibition, 48 h
# [2] = test system: P388/ADR leukemia; test: NCI tumour cell line growth inhibition, 48 h
compound,measurement,setting,value
O=C(Nc1ccccc1)c1c(O)[nH]c(=S)[nH]c1=O,GI50,[1],67 µM
same,TGI,[1],57.7 µM and > 250 µM
same,GI50,[2],46.9 µM
same,TGI,[2],80.6 µM and 116 µM
